Measured values as given in article PMC4014704, “β-Boomerang Antimicrobial and Antiendotoxic Peptides: Lipidation and Disulfide Bond Effects on Activity and Structure” (Pharmaceuticals, 2014).
In brackets after ≈: the same amount, converted by molar mass. Peptide text beside a SMILES is read from it.

Tests used:
[1] = aqueous solution for NMR
Source text: (§1) In addition, incorporation of disulfide bridges in AMPs may stabilize conformations and enhance cationicity and hydrophobicity required for enhanced activity. […] Residue Ile10 was chosen for Cys replacement since this residue is located at the exposed face of the β-strand of the YI12WF structure (Figure 1).
The solution conformations of YI13C, C4YI13C peptides were examined in free solution using two-dimensional ^1H-^1H NOESY and TOCSY experiments.

[2] = Reverse phase HPLC retention time (hydrophobicity); assay type: physicochemical; set-up: unit not given beside the values; conditions: C18 column (300 Å pore size, 5 μm particle size), linear gradient acetonitrile/water, higher Rt taken as more hydrophobic
Source text: Materials: LPS of E. coli 0111:B4, FITC-LPS of E. coli 055:B5, acrylamide, NPN (1-N-phenylnaphthylamine) were purchased from Sigma (Saint Louis, MO, USA). All bacterial strains were obtained from the American Type Culture Collection (Manassas, VA, USA). Designed peptides were synthesized commercially by GL Biochem (Shanghai, China) and further purified by a reverse phase HPLC (Waters), using a C18 column (300 Å pore size, 5 μm particle size). The dimeric variants of β-boomerang lipopeptides were treated with 20% DMSO for 18 hours and the oxidized peptides were further purified by HPLC. A linear gradient of acetonitrile/water mixture was used for the purification and fractions eluting with higher purity were collected and freeze-dried.
as §1

[3] = test system: outer membrane of E. coli cells; experiment: Outer membrane permeability assay (NPN dye); assay type: cell-based; conditions: E. coli OD600 0.5, 10 μM NPN
Description: Outer membrane permeability assay: Outer membrane of Gram bacteria acts as permeability barrier for hydrophobic antibacterial compounds. […] E. coli cells were grown to mid logarithmic phase and diluted to an OD600nm of 0.5 in 10 mM sodium phosphate buffer, pH 7.0. The excitation was set at 350 nm and emission at 390–450 nm. NPN was added to the diluted cells at the concentration of 10 μM and a basal fluorescence was recorded followed by the addition of increasing concentration of peptides.

E. coli cells = experiment: Zeta potential measurements; assay type: cell-based; conditions: 4 μM peptide; cells without peptide about −20.0 mV; OD600 0.2
Description: Zeta potential measurements: The zeta potential measurements were carried out on a Zetasizer Nano ZS (Malvern Instruments, Worcestershire, UK) equipped with a 633 nm He lasers. Mid-log phase grown bacterial cells were diluted to an OD600 of 0.2 and a basal measurement in the absence of peptides was acquired in disposable zeta cells with gold electrodes. Increasing concentrations of the designed peptides were then added to the cells and the measurements were made. A total of five measurements of 100 runs each were carried out for all dilutions.

S.aureus (ATCC 25923) = experiment: Antibacterial assay (MIC); assay type: cell-based; conditions: 10 mM phosphate buffer pH 6.8, 3 h 37 °C, streaked on Mueller-Hinton agar
Description: (§2) Antibacterial assay: The minimum inhibitory concentration (MIC) of the designed peptides was determined against four Gram-negative strains (E. coli, P. aeruginosa ATCC 27853, K. pneumoniae ATCC 13883, S. enterica ATCC 14028) and four Gram-positive strains (B. subtilis, S. aureus ATCC 25923, S. pyogenes ATCC 19615 and E. faecalis ATCC 29212). In brief, mid logarithmic phase of overnight grown bacterial cultures were obtained in LB broth and adjusted to OD600 0.2 in 10 mM phosphate buffer, pH 6.8. About 50 μL of these cells were added to equal volume of designed peptides at two-fold dilutions in 96-well sterile polypropylene plates followed by incubation for 3hrs at 37 °C. Aliquots of the above titrated wells were streaked onto Mueller-Hinton agar plates and the concentration at which no visible bacterial growth was observed considered as the MIC value of the peptide.

[4] = test system: K. pneumoniae (ATCC 13883); experiment: Antibacterial assay (MIC); assay type: cell-based; conditions: 10 mM phosphate buffer pH 6.8, 3 h 37 °C, streaked on Mueller-Hinton agar
Description: as §2

[5] = test system: P.aeruginosa (ATCC 27853); experiment: Antibacterial assay (MIC); assay type: cell-based; conditions: 10 mM phosphate buffer pH 6.8, 3 h 37 °C, streaked on Mueller-Hinton agar
Description: as §2

E.faecalis (ATCC 29212) = experiment: Antibacterial assay (MIC); assay type: cell-based; conditions: 10 mM phosphate buffer pH 6.8, 3 h 37 °C, streaked on Mueller-Hinton agar
Description: as §2

S.pyogenes (ATCC 19615) = experiment: Antibacterial assay (MIC); assay type: cell-based; conditions: 10 mM phosphate buffer pH 6.8, 3 h 37 °C, streaked on Mueller-Hinton agar
Description: as §2

E.coli (Lab strain) = experiment: Antibacterial assay (MIC); assay type: cell-based; conditions: 10 mM phosphate buffer pH 6.8, 3 h 37 °C, streaked on Mueller-Hinton agar, no visible growth
Description: as §2

B.subtilis (Lab strain) = experiment: Antibacterial assay (MIC); assay type: cell-based; conditions: 10 mM phosphate buffer pH 6.8, 3 h 37 °C, streaked on Mueller-Hinton agar
Description: as §2

S.enterica (ATCC 14028) = experiment: Antibacterial assay (MIC); assay type: cell-based; conditions: 10 mM phosphate buffer pH 6.8, 3 h 37 °C, streaked on Mueller-Hinton agar
Description: as §2

LPS micelles [6] = experiment: Dynamic light scattering of LPS micelles; set-up: species or system E. coli 0111:B4; conditions: DLS, 0.5 μM LPS, LPS:peptide 1:4; LPS alone 814 nm
Description: Dynamic light scattering measurements: LPS forms micelles of large sizes, which with the addition of increasing concentration of peptides, dissociates to smaller sizes. DLS measurements were made for 0.5 μM LPS and then with LPS: Peptide ratios of 1:2 and 1:4. The scattering was measured with Dynamic Light Scattering software provided with the instrument (Brookhaven Instruments Corp., Holtsville, NY, USA) and the scattering data was analyzed with CONTIN method.

LPS (endotoxin) = experiment: LPS neutralization assay (chromogenic LAL kit); assay type: biochemical
Description: LPS neutralization assay: LAL chromogenic kit (QCL 100 Cambrex, Walkersville, MD, USA) was used to determine endotoxin neutralization of the designed peptides following protocol of the vendor. LPS in Gram negative bacteria activates a proenzyme in limulus amoebocyte lysate (LAL). This activated enzyme in turn catalytically release a colored product pNA from the colorless substrate Ac-Ile-Glu-Ala-Arg-pNA which is detected spectrophotometrically at OD410. All peptides were dissolved in the pyrogen-free water supplied with the kit and pH was adjusted to 7.0 with 1N HCl or 1N NaOH (which is prepared in pyrogen-free water). The increasing concentrations of the peptides were incubated with three different concentrations of endotoxins, i.e., at 0.4, 0.8 and 1.0 endotoxin units (EU) in a total volume of 50 μL for 30 minutes at 37 °C. About 50 μL of LAL reagent was added to peptide-LPS complex and further incubated for 10 minutes followed by addition of 100 μL substrate. After incubation of six minutes for the reaction, the release of colored product was recorded at OD410. Water in the place of peptides served as negative control (blank) that is considered as 0% inhibition and percentage of LPS neutralization was calculated by: % of LPS neutralization = [(OD blank − OD peptide)/OD blank] × 100

red blood cells = conditions: mouse RBC ~4% (v/v) in PBS pH 7.0, 1 h, OD540, 1% Triton-X = positive control
Description: Hemolytic assay: Blood was collected from healthy mice in a tube containing EDTA. Cells with EDTA were centrifuged at 800 g for 10 min, to remove the buffy plasma coat layer, and washed three times in PBS (35 mM phosphate buffer, 150 mM NaCl, pH 7.0). 50 μL of RBC solution was added to equal volume of two-fold dilution of the peptides in 96-well micro titer plates and incubated for one hour. The final erythrocyte concentration estimated to be ~4% (v/v). After one hour, the mixture was centrifuged and the release of hemoglobin in the supernatant was determined spectrophotometrically at OD540. Buffer and 1% Triton-X in the place of peptides used as negative control and positive control, respectively. The percentage of hemolysis was calculated using the following method: Percentage of hemolysis = (OD peptide − OD buffer)/(OD Triton-X-OD buffer) × 100

LPS micelles [7] = experiment: Isothermal titration calorimetry; assay type: binding, E. coli 0111:B4; conditions: ITC
Description: Isothermal titration calorimetry: Binding of designed peptides with LPS micelles was determined using isothermal titration calorimetry in VP-ITC micro calorimeter (Microcal Inc, Northampton, MA, USA). Peptides and LPS samples were dissolved in 10 mM phosphate buffer, pH 7.0 and filtered. LPS at a concentration of 10 μM was loaded into the sample cell and the reference cell was filled with the same buffer. The syringe was filled with 1mM peptide solution. Typically 30 injections of 3.5 μL of the peptides were made into the sample cell at 25 °C. Sample cell was stirred continuously at 300 rpm. Raw data were obtained and analyzed using single site binding model in Microcal Origin 5.0 software. Association constant (Ka) and enthalpy change (ΔH) were directly determined from ITC profiles. Dissociation constant was calculated from Kd = 1/Ka. ΔG and TΔS were estimated from the fundamental equations of thermodynamics, ΔG = −RTlnKa and TΔS = (ΔH − ΔG), respectively.

[8] = 0.4 EU endotoxin, 1.0 μM peptide, 30 min 37 °C, OD410

SMILES	Solubility for NMR studies (in words) [1]	Retention time (Rt) [2]	NPN fluorescence intensity with increasing peptide (in words) [3]	Zeta potential of E. coli cells after peptide addition (E. coli cells)	Minimum inhibitory concentration (MIC) (S.aureus (ATCC 25923))	Minimum inhibitory concentration (MIC) [4]	Minimum inhibitory concentration (MIC) [5]	Minimum inhibitory concentration (MIC) (E.faecalis (ATCC 29212))	Minimum inhibitory concentration (MIC) (S.pyogenes (ATCC 19615))	Minimum inhibitory concentration (MIC) (E.coli (Lab strain))	Minimum inhibitory concentration (MIC) (B.subtilis (Lab strain))	Minimum inhibitory concentration (MIC) (S.enterica (ATCC 14028))	Diameter of LPS aggregates (LPS micelles [6])	LPS neutralization (LPS (endotoxin); [8])	LPS neutralization (LPS (endotoxin); at increased peptide concentration, different LPS concentrations (0.4, 0.8, 1.0 EU), dose dependent)	% of hemolysis at 50 μM peptide concentration (red blood cells)	LPS neutralization (LPS (endotoxin); 1.0 EU endotoxin, 1.0 μM peptide)	Ka (LPS micelles [7]; 1 mM peptide into 10 μM LPS, 10 mM phosphate buffer pH 7.0, 25 °C, single site binding model)	Kd (LPS micelles [7]; LPS micelles, pH 7.0, 25 °C, Kd = 1/Ka)
CCCCCCCC(=O)N[C@@H](Cc1ccc(O)cc1)C(=O)N[C@H](C(=O)N[C@@H](CC(C)C)C(=O)N[C@@H](Cc1c[nH]c2ccccc12)C(=O)N[C@@H](CCCCN)C(=O)N[C@@H](CCCNC(=N)N)C(=O)N[C@@H](CCCCN)C(=O)N[C@@H](CCCNC(=N)N)C(=O)N[C@@H](CCCCN)C(=O)N[C@@H](Cc1ccccc1)C(=O)N[C@@H](CSSC[C@H](NC(=O)[C@H](Cc1ccccc1)NC(=O)[C@H](CCCCN)NC(=O)[C@H](CCCNC(=N)N)NC(=O)[C@H](CCCCN)NC(=O)[C@H](CCCNC(=N)N)NC(=O)[C@H](CCCCN)NC(=O)[C@H](Cc1c[nH]c2ccccc12)NC(=O)[C@H](CC(C)C)NC(=O)[C@@H](NC(=O)[C@H](Cc1ccc(O)cc1)NC(=O)CCCCCCC)C(C)C)C(=O)N[C@@H](Cc1ccccc1)C(=O)N[C@H](C(N)=O)[C@@H](C)CC)C(=O)N[C@@H](Cc1ccccc1)C(=O)N[C@H](C(N)=O)[C@@H](C)CC)C(C)C [C8YI13C] (HELM PEPTIDE1{[CCCCCCCC(=O)[*:2]].Y.V.L.W.K.R.K.R.K.F.C.F.I.[am]}|PEPTIDE2{[CCCCCCCC(=O)[*:2]].Y.V.L.W.K.R.K.R.K.F.C.F.I.[am]}$PEPTIDE1,PEPTIDE2,12:R3-12:R3$$$V2.0)	limited solubility	37.40	continues to increase	~+24.0 mV	5 µM (≈ 19.1 µg/mL)	12 µM (≈ 45.9 µg/mL)	5 µM (≈ 19.1 µg/mL)	4 µM (≈ 15.3 µg/mL)	50 µM (≈ 191 µg/mL)	3 µM (≈ 11.5 µg/mL)	5 µM (≈ 19.1 µg/mL)	50 µM (≈ 191 µg/mL)	385 nm	around 60%	80%	21.5%			
CCCC(=O)N[C@@H](Cc1ccc(O)cc1)C(=O)N[C@H](C(=O)N[C@@H](CC(C)C)C(=O)N[C@@H](Cc1c[nH]c2ccccc12)C(=O)N[C@@H](CCCCN)C(=O)N[C@@H](CCCNC(=N)N)C(=O)N[C@@H](CCCCN)C(=O)N[C@@H](CCCNC(=N)N)C(=O)N[C@@H](CCCCN)C(=O)N[C@@H](Cc1ccccc1)C(=O)N[C@@H](CSSC[C@H](NC(=O)[C@H](Cc1ccccc1)NC(=O)[C@H](CCCCN)NC(=O)[C@H](CCCNC(=N)N)NC(=O)[C@H](CCCCN)NC(=O)[C@H](CCCNC(=N)N)NC(=O)[C@H](CCCCN)NC(=O)[C@H](Cc1c[nH]c2ccccc12)NC(=O)[C@H](CC(C)C)NC(=O)[C@@H](NC(=O)[C@H](Cc1ccc(O)cc1)NC(=O)CCC)C(C)C)C(=O)N[C@@H](Cc1ccccc1)C(=O)N[C@H](C(N)=O)[C@@H](C)CC)C(=O)N[C@@H](Cc1ccccc1)C(=O)N[C@H](C(N)=O)[C@@H](C)CC)C(C)C [C4YI13C] (HELM PEPTIDE1{[CCCC(=O)[*:2]].Y.V.L.W.K.R.K.R.K.F.C.F.I.[am]}|PEPTIDE2{[CCCC(=O)[*:2]].Y.V.L.W.K.R.K.R.K.F.C.F.I.[am]}$PEPTIDE1,PEPTIDE2,12:R3-12:R3$$$V2.0)		31.62		about +19.1 mV	50 µM (≈ 186 µg/mL)	8 µM (≈ 29.7 µg/mL)	15 µM (≈ 55.7 µg/mL)	50 µM (≈ 186 µg/mL)	50 µM (≈ 186 µg/mL)	10 µM (≈ 37.1 µg/mL)	15 µM (≈ 55.7 µg/mL)	50 µM (≈ 186 µg/mL)	331 nm	~ 40%		14.1%	50%	2.2 µM⁻¹	450 nM
